Laboratory results published in the NIST ThermoML archive (doi:10.1016/j.jct.2010.12.022).
Several values for one entry are separate records, joined by “and”; a condition that tells them apart may be missing. Equal entries are not always repeated.

Details: Crystal, Calculated from knudsen effusion weight loss

c1ccc(-c2cc(-c3ccccc3)cc(-c3ccccc3)c2)cc1 [1,3,5-triphenylbenzene]
Details | vapor or sublimation pressure
404.34 K | 9.95e-05 kPa
405.34 K | 0.0001076 kPa
407.27 K | 0.000136 kPa
408.34 K | 0.0001462 kPa
408.35 K | 0.0001487 kPa
410.36 K | 0.0001809 kPa
412.35 K | 0.0002238 kPa and 0.0002202 kPa
413.28 K | 0.000252 kPa
414.37 K | 0.0002718 kPa
416.35 K | 0.0003305 kPa
416.37 K | 0.0003361 kPa
418.28 K | 0.000412 kPa
418.39 K | 0.000405 kPa
420.36 K | 0.0004929 kPa
420.39 K | 0.0005004 kPa
422.41 K | 0.000601 kPa
423.28 K | 0.000671 kPa
424.37 K | 0.000729 kPa
424.42 K | 0.0007385 kPa
426.43 K | 0.0008947 kPa
428.29 K | 0.001087 kPa
428.38 K | 0.00108 kPa
428.45 K | 0.001096 kPa

c1ccc2cc3ccccc3cc2c1 [anthracene]
Details | vapor or sublimation pressure
323.31 K | 2.21e-05 kPa
327.16 K | 3.51e-05 kPa
331.27 K | 5.47e-05 kPa
335.32 K | 8.42e-05 kPa
339.31 K | 0.00013 kPa
343.32 K | 0.000197 kPa
347.26 K | 0.000281 kPa
347.33 K | 0.000289 kPa
351.27 K | 0.00043 kPa
351.33 K | 0.000426 kPa and 0.000424 kPa
355.26 K | 0.000604 kPa
355.33 K | 0.000634 kPa
357.34 K | 0.000783 kPa
359.26 K | 0.000876 kPa
359.33 K | 0.000945 kPa
363.34 K | 0.001374 kPa
367.27 K | 0.001898 kPa
367.35 K | 0.001967 kPa
371.35 K | 0.002859 kPa
375.36 K | 0.004145 kPa

O=C1c2ccccc2-c2cccc3cccc1c23 [7H-benz[de]anthracen-7-one]
Details | vapor or sublimation pressure [kPa]
388.22 K | 0.0001308
389.22 K | 0.0001419
390.22 K | 0.0001594
391.22 K | 0.0001742
392.19 K | 0.0001926
392.22 K | 0.0001937
393.23 K | 0.0002126
394.2 K | 0.000232
394.23 K | 0.0002331
395.24 K | 0.0002574
396.2 K | 0.0002786
396.23 K | 0.0002797
397.24 K | 0.0003067
398.2 K | 0.0003364
398.23 K | 0.0003376
399.24 K | 0.0003702
400.21 K | 0.0004108
400.24 K | 0.000412
401.24 K | 0.0004472
402.21 K | 0.0004911
402.24 K | 0.0004922
403.25 K | 0.000532
404.21 K | 0.0005813
406.21 K | 0.0007014
408.22 K | 0.0008383
